How the values were obtained:
[1] = system: a-TC76 (DNA, aptamer) CGTACGGAATTCGCTAGCCCCCCGGCAGGCCACGGCTTGGGTTGGTCCCACTGCGCGTGGATCCGAGCTCCACGTG; test: equilibrium filtration, HPLC; conditions: 100 mM NaCl, 5 mM KCl, 2 mM MgCl2, 1 mM CaCl2; 20 mM Tris/HCl pH 7.6 (binding buffer listed for TC)
[2] = system: a-TC40 (DNA, aptamer) GTTTGTGTATTACAGTTATGTTACCCTCATTTTTCTGAAC; test: equilibrium filtration, HPLC; conditions: 100 mM NaCl, 5 mM KCl, 2 mM MgCl2, 1 mM CaCl2; 20 mM Tris/HCl pH 7.6 (binding buffer listed for TC); filter leakage 0.53
[3] = system: a-TCmu (RNA, aptamer) GGGCCUAAAACAUACCAGAUCGCCACCCGCGCUUUAAUCUGGAGAGGUGAAGAAUACGACCACCUAGGCUC; test: fluorescence titration (intrinsic tetracycline fluorescence); conditions: 100 mM NaCl, 10 mM MgCl2; 20 mM potassium phosphate pH 7.5, 25 °C; fluorescence yield up about 12 times
[4] = system: a-TCmu (biotinylated, on DynaSA) (RNA, aptamer) GGGCCUAAAACAUACCAGAUCGCCACCCGCGCUUUAAUCUGGAGAGGUGAAGAAUACGACCACCUAGGCUC; test: bead capture, HPLC; conditions: room temperature, 1 h; eluted with 2 M NaCl and 80 °C
[5] = system: a-TC40 (amino, on DynaEpoxy) (DNA, aptamer) GTTTGTGTATTACAGTTATGTTACCCTCATTTTTCTGAAC; test: bead capture, HPLC; conditions: room temperature, 1 h; capture significantly higher than nonsense aptamer
[6] = system: a-TC8 (amino, on DynaEpoxy) (DNA, aptamer) CGGTGGTG; test: bead capture, HPLC; conditions: room temperature, 1 h; capture significantly higher than nonsense aptamer
[7] = system: a-TCmu (RNA, aptamer) GGGCCUAAAACAUACCAGAUCGCCACCCGCGCUUUAAUCUGGAGAGGUGAAGAAUACGACCACCUAGGCUC; test: equilibrium filtration, HPLC; conditions: Na+ 100 mM; Mg2+ 10 mM; K+ (20 mM potassium phosphate buffer); 20 mM potassium phosphate pH 7.5 (presumed)
[8] = system: a-SDM (DNA, aptamer) GAGGGCAACGAGTGTTTATAGA; test: equilibrium filtration (3 kD filter), HPLC; conditions: 50 mM NaCl, 5 mM KCl, 5 mM MgCl2; 20 mM Tris/HCl pH 8 (BBSDM)
[9] = system: a-SMZ (DNA, aptamer) TTAGCTTATGCGTTGGCCGGGATAAGGATCCAGCCGTTGTAGATTTGCGTTCTAACTCTC; test: equilibrium filtration, HPLC; conditions: 100 mM NaCl, 5 mM KCl, 2 mM MgCl2, 1 mM CaCl2; 20 mM Tris/HCl pH 7.6 (binding buffer listed for SMZ); highest aptamer 2.5 µM
[10] = system: a-SMZ-b (on DynaSA) (DNA, aptamer) TTAGCTTATGCGTTGGCCGGGATAAGGATCCAGCCGTTGTAGATTTGCGTTCTAACTCTC; test: bead capture, HPLC; conditions: room temperature, 1 h; around 2% captured, no elution, data not shown

## CN(C)[C@@H]1C(=O)C(C(N)=O)=C(O)[C@@]2(O)C(=O)C3=C(O)c4c(O)cccc4[C@@](C)(O)[C@H]3C[C@@H]12
[1]
  k: 14 µM
[2]
  k: 100 nM
[3]
  k: ~ 60 nM
[4]
  binding: yes
[5]
  binding: yes
[6]
  binding: yes
[7]
  k: 64 nM

## COc1cc(NS(=O)(=O)c2ccc(N)cc2)nc(OC)n1
[8]
  binding: no

## Cc1cc(C)nc(NS(=O)(=O)c2ccc(N)cc2)n1
[9]
  k: > 2.5 µM
[10]
  binding: weak

Reference: PMC10046095 (2023)
